Reference: patent US7592366B2, “Therapeutic compounds” (Allergan, Inc., priority 2006, dated 2009)

Legend:
EP2 [1] = target: T1, EP2 (Homo sapiens, UniProt P43116); experiment: Competition binding [3H]PGE2, EP2 Ki; set-up: expressed in transfected cells; host or cells: HEK 293; details: [3H]PGE2 competition, HEK 293 cells expressing human EP2
Protocol: Competition binding experiments were performed in a medium containing Hank's balanced salt solution, Hepes 20 mM, pH 7.3, membranes (˜60 μg protein) or 2×10^5 cells from HEK 293 cells stably expressing human EP2 receptors, [^3H]PGE2 (10 nM) and various concentrations of test compounds in a total volume of 300 μl. Reaction mixtures were incubated at 23° C. for 60 min, and were filtered over Whatman GF/B filters under vacuum. Filters were washed three times with 5 ml ice-cold buffer containing 50 mM Tris/HCl (pH 7.3). Non-specific binding was estimated in the presence of excess unlabeled PGE2 (10 μM). Binding data fitted to the binding model for a single class of binding sites, using nonlinear regression analysis. IC50 values thus obtained were converted to Ki using the equation of Ki=(IC50/(1+[L]/KD) where [L] represents PGE2 concentration (10 nM) and KD the dissociation constant for [^3H]PGE2 at human EP2 receptors (40 nM).
(§1) HEK-293 cells stably expressing the human or feline FP receptor, or EP1, EP2, or EP4 receptors were washed with TME buffer, scraped from the bottom of the flasks, and homogenized for 30 sec using a Brinkman PT 10/35 polytron. TME buffer was added to achieve a final 40 ml volume in the centrifuge tubes (the composition of TME is 100 mM TRIS base, 20 mM MgCl2, […]; 10N HCl is added to achieve a pH of 7.4).
(§2) The cell homogenate was centrifuged at 19000 r.p.m. for 20 min at 4° C. using a Beckman Ti-60 rotor. The resultant pellet was resuspended in TME buffer to give a final 1 mg/ml protein concentration, as determined by Biorad assay. Radioligand binding competition assays vs. [^3H-]17-phenyl PGF2α (5 nM) were performed in a 100 μl volume for 60 min. Binding reactions were started by adding plasma membrane fraction. The reaction was terminated by the addition of 4 ml ice-cold TRIS-HCl buffer and rapid filtration through glass fiber GF/B filters using a Brandel cell harvester. The filters were washed 3 times with ice-cold buffer and oven dried for one hour.
(§3) [^3H-] PGE2 (specific activity 180 Ci mmol) was used as the radioligand for EP receptors. [^3H] 17-phenyl PGF2α was employed for FP receptor binding studies. Binding studies employing EP1, EP2, EP4 and FP receptors were performed in duplicate in at least three separate experiments. A 200 μl assay volume was used. Incubations were for 60 min at 25° C. and were terminated by the addition of 4 ml of ice-cold 50 mM TRIS-HCl, followed by rapid filtration through Whatman GF/B filters and three additional 4 ml washes in a cell harvester (Brandel). Competition studies were performed using a final concentration of 5 nM [^3H]-PGE2, or 5 nM [^3H] 17-phenyl PGF2α and non-specific binding determined with 10^−5M of unlabeled PGE2, or 17-phenyl PGF2α, according to receptor subtype studied.

hTP = target: T2, hTP (Homo sapiens, UniProt P21731); experiment: FLIPR calcium signal, hTP; format: cell-based; details: read-out: Other Receptors (EC50 in nM) hTP
T2 construct: expressed in transfected cells; host or cells: HEK-293(EBNA)
T2 sequence (P21731 1-343): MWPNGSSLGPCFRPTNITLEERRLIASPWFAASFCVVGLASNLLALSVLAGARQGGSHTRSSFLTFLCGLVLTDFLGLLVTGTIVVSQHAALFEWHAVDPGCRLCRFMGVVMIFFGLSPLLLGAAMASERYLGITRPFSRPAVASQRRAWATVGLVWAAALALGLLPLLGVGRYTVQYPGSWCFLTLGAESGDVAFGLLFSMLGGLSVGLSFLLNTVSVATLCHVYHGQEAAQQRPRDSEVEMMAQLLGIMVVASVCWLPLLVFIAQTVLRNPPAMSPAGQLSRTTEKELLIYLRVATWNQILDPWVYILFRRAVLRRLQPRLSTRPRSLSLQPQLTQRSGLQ
Protocol: (§4) HEK-293(EBNA) cells, stably expressing one type or subtype of recombinant human prostaglandin receptors (prostaglandin receptors expressed: hDP/Gqs5; hEP1; hEP2/Gqs5; hEP3A/Gqi5; hEP4/Gqs5; hFP; hIP; hTP), were cultured in 100 mm culture dishes in high-glucose DMEM medium containing 10% fetal bovine serum, 2 mM l-glutamine, 250 μg/ml geneticin (G418) and 200 μg/ml hygromycin B as selection markers, and 100 units/ml penicillin G, 100 μg/ml streptomycin and 0.25 μg/ml amphotericin B.
(§5) Cells were seeded at a density of 5×10^4 cells per well in Biocoat® Poly-D-lysine-coated black-wall, clear-bottom 96-well plates (Becton-Dickinson) and allowed to attach overnight in an incubator at 37° C. Cells were then washed two times with HBSS-HEPES buffer (Hanks Balanced Salt Solution without bicarbonate and phenol red, 20 mM HEPES, pH 7.4) using a Denley Cellwash plate washer (Labsystems). After 45 minutes of dye-loading in the dark, using the calcium-sensitive dye Fluo-4 […] at a final concentration of 2 μM, plates were washed four times with HBSS-HEPES buffer to remove excess dye leaving 100 μl in each well. Plates were re-equilibrated to 37° C. for a few minutes.
(§6) Cells were excited with an Argon laser at 488 nm, and emission was measured through a 510-570 nm bandwidth emission filter (FLIPR™, Molecular Devices, Sunnyvale, Calif.). Drug solution was added in a 50 μl volume to each well to give the desired final concentration. The peak increase in fluorescence intensity was recorded for each well. On each plate, four wells each served as negative (HBSS-HEPES buffer) and positive controls (standard agonists: BW245C (hDP); PGE2 (hEP1; hEP2/Gqs5; hEP3A/Gqi5; hEP4/Gqs5); PGF2α (hFP); carbacyclin (hIP); U-46619 (hTP), depending on receptor). The peak fluorescence change in each drug-containing well was then expressed relative to the controls.
Compounds were tested in a high-throughput (HTS) or concentration-response (CoRe) format. […]

normotensive dogs = experiment: Intraocular pressure and ocular surface hyperemia in normotensive dogs; format: in vivo, dog; set-up: scale not given here
Description: U.S. Pat. No. 7,091,231 describes the methods used for these in vivo tests.

hEP2/Gqs5 = target: T3, hEP2/Gqs5 (Homo sapiens, UniProt P43116); experiment: FLIPR calcium signal, EP2; format: cell-based; details: HEK-293(EBNA) cells
T3 construct: expressed in transfected cells; host or cells: HEK-293(EBNA)
T3 sequence (P43116 whole entry): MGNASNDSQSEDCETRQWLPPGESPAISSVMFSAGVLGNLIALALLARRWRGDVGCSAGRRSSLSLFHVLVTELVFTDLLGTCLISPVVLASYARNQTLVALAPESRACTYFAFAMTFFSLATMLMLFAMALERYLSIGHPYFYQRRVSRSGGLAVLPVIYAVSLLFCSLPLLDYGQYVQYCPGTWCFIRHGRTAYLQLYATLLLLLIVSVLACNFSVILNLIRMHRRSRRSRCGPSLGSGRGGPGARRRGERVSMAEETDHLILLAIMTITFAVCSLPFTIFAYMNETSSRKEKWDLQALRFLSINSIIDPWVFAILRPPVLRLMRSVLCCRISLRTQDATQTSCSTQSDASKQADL
Protocol: as §4, §5, §6
(§7) Compounds were tested in a high-throughput (HTS) or concentration-response (CoRe) format. In the HTS format, forty-four compounds per plate were examined in duplicates at a concentration of 10^−5 M. To generate concentration-response curves, four compounds per plate were tested in duplicates in a concentration range between 10^−5 and 10^−11 M. The duplicate values were averaged. In either, HTS or CoRe format each compound was tested on at least 3 separate plates using cells from different passages to give an n≧3.

EP4 receptors = target: T4, EP4 receptors (Homo sapiens, UniProt P35408); experiment: Radioligand binding [3H]PGE2, EP4 Ki; details: [3H]PGE2 competition, HEK-293 cells expressing EP4
T4 construct: expressed in transfected cells; host or cells: HEK-293
T4 sequence (P35408 whole entry): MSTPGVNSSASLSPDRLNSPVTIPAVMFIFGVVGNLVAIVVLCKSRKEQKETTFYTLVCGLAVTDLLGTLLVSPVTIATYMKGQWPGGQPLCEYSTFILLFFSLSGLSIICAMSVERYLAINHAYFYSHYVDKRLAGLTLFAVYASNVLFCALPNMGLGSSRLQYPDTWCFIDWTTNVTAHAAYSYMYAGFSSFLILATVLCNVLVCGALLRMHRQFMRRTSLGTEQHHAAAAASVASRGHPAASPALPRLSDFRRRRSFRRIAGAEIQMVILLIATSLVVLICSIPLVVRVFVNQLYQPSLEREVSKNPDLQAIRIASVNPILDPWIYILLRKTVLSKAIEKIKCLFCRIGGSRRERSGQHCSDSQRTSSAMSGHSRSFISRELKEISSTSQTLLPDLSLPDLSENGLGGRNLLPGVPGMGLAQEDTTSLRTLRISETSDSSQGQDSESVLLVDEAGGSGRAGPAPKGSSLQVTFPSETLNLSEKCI
Protocol: as §1, §2, §3

hEP4/Gqs5 = target: T5, hEP4/Gqs5 (Homo sapiens, UniProt P35408); experiment: FLIPR calcium signal, EP4; format: cell-based; details: HEK-293(EBNA) cells
T5 construct: expressed in transfected cells; host or cells: HEK-293(EBNA)
T5 sequence (P35408 whole entry): as above
Protocol: as §4, §5, §6, §7

EP2 [2] = target: T1, EP2; experiment: cAMP assay, EP2; format: cell-based; set-up: expressed in transfected cells; host or cells: HEK-EBNA; details: HEK-EBNA cells expressing EP2
Protocol: A 384-well drug plate was prepared to contain 6 test compounds, PGE2 and cAMP in 16 serial dilutions in triplicate, using a Biomek station. HEK-EBNA cells expressing a target PG receptor subtype (EP2 or EP4) were suspended in a stimulation buffer (HBSS, 0.1% BSA, 0.5 mM IBMX and 5 mM HEPES, pH 7.4) in a density of 10^4 cells/5 μl. The reaction was initiated by mixing 5 μL drug dilutions with 5 μl of HEK-EBNA cells in a well, carried out for 30 min at room temperature, and followed by the addition of 5 μl anti-cAMP acceptor beads in the control buffer with Tween-20 (25 mM NaCl, 0.03% Tween-20, 5 mM HEPES, pH7.4). After 30 min in the dark at room temperature, the mixtures were incubated with 15 μl biotinylated-cAMP/strepavidin donor beads in Lysis/Detection buffer (0.1% BSA, 0.3% Tween-20 and 5 mM HEPES, pH7.4) for 45 min at the room temperature. Fluorescence changes were read using a Fusion-alpha HT microplate reader.

hDP/Gqs5 = target: T6, hDP/Gqs5 (Homo sapiens, UniProt Q13258); experiment: FLIPR calcium signal, hDP; format: cell-based; details: read-out: Other Receptors (EC50 in nM) hDP
T6 construct: expressed in transfected cells; host or cells: HEK-293(EBNA)
T6 sequence (Q13258 1-359): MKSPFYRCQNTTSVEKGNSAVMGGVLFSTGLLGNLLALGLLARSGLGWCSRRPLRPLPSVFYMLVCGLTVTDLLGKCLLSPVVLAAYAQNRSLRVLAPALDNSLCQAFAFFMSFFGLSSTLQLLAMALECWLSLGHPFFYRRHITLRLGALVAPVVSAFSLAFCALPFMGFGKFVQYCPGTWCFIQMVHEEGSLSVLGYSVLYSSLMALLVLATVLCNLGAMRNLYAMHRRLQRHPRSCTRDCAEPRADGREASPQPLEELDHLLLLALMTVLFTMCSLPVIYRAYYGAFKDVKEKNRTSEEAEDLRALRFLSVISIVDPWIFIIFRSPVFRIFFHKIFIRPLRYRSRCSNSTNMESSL
Protocol: as §4, §5, §6, §7

[3] = 0.001%, once daily for 5 days, at 50 h

T1 sequence (P43116 whole entry): as the sequence (P43116 whole entry) above

SMILES	Ki (EP2 [1]) [nM]	EC50 (hTP) [nM]	maximum ocular surface hyperemia (OSH) score (normotensive dogs; 0.0001%, once daily for 5 days, at 74 h)	maximum ocular surface hyperemia (OSH) score (normotensive dogs; 0.0005%, once daily for 5 days, at 50 h)	maximum ocular surface hyperemia (OSH) score (normotensive dogs; [3])	maximum ocular surface hyperemia (OSH) score (normotensive dogs; 0.01%, once daily for 5 days, at 26 h)	EC50 (hEP2/Gqs5) [nM]	Ki (EP4 receptors) [nM]	EC50 (hEP4/Gqs5) [nM]	EC50 (EP2 [2]) [nM]	maximum ocular surface hyperemia (OSH) score (normotensive dogs; 0.001%, once daily for 4 days, at 74 h)	EC50 (hDP/Gqs5) [nM]	maximum ocular surface hyperemia (OSH) score (normotensive dogs; 0.01%, once daily for 5 days, at 74 h)	maximum ocular surface hyperemia (OSH) score (normotensive dogs; 0.001%, once daily for 5 days, at 26 h)
O=C(O)c1ccc(CCC[C@@H]2[C@@H](CCc3cc(Cl)cc(Cl)c3)[C@H](O)C[C@H]2Cl)s1 [11a, 5-(3-((1R,2R,3R,5R)-5-chloro-2-(3,5-dichlorophenethyl)-3-hydroxycyclopentyl)propyl)thiophene-2-carboxylic acid]	0.2	> 10000	0.8	1.75	1.8	2.5	18	616	> 10000	0.09	–	–	–	–
O=C(O)c1ccc(CCC[C@@H]2[C@@H](CCc3cc(Cl)nc(Cl)c3)[C@H](O)C[C@H]2Cl)s1 [11b, 5-(3-((1R,2R,3R,5R)-5-chloro-2-(2-(2,6-dichloropyridin-4-yl)ethyl)-3-hydroxycyclopentyl)propyl)-thiophene-2-carboxylic acid]	1	–	–	–	–	–	13	582	> 10000	0.05	1.9	–	–	–
O=C(O)c1ccc(CCC[C@@H]2[C@@H](CCc3cc(Cl)cc(CO)c3)[C@H](O)C[C@H]2Cl)s1 [11c, 5-(3-((1R,2R,3R,5R)-5-chloro-2-(3-chloro-5-(hydroxymethyl)phenethyl)-3-hydroxycyclopentyl)propyl)thiophene-2-carboxylic acid]	1	–	–	–	0.8	–	86	437	> 10000	0.08	–	2940	–	–
Cc1cc(C)cc(CC[C@@H]2[C@@H](CCCc3ccc(C(=O)O)s3)[C@H](Cl)C[C@H]2O)c1 [11e, 5-(3-((1R,2R,3R,5R)-5-chloro-2-(3,5-dimethylphenethyl)-3-hydroxycyclopentyl)propyl)thiophene-2-carboxylic acid]	3	–	–	–	–	–	287	966	> 10000	0.4	–	15300	–	–
O=C(O)CCCCCC[C@@H]1[C@@H](CCc2cc(Cl)cc(Cl)c2)[C@H](O)C[C@H]1Cl [compound 6, 7-{(1R,2R,3R,5R)-5-Chloro-2-[2-(3,5-dichloro-phenyl)-ethyl]-3-hydroxy-cyclopentyl}-heptanoic acid]	22	4620	–	–	–	–	3270	394	10200	0.8	–	–	0.8	–
OCc1ccc(CCC[C@@H]2[C@@H](CCc3cc(Cl)cc(Cl)c3)[C@H](O)C[C@H]2Cl)s1 [compound 13, (1R,2R,3R,4R)-4-chloro-2-(3,5-dichlorophenethyl)-3-(3-(5-(hydroxymethyl)thiophen-2-yl)propyl)cyclopentanol]	502	–	–	–	–	–	10200	> 10000	–	284	–	–	–	–
CC(C)OC(=O)c1ccc(CCC[C@@H]2[C@@H](CCc3cc(Cl)cc(CO)c3)[C@H](O)C[C@H]2Cl)s1 [compound 18, Isopropyl 5-(3-((1R,2R,3R,5R)-5-chloro-2-(3-chloro-5-(hydroxymethyl)phenethyl)-3-hydroxycyclopentyl)propyl)thiophene-2-carboxylate]	–	–	–	–	–	–	–	–	–	–	–	–	–	0.9
